The values that follow come from US20160166604A1, “Thiol-Sensitive Positive Inotropes” (priority 2005, published 2016).

Data set [1] in a line: End-diastolic pressure-volume relationship (EDPVR) in chronically instrumented dogs with pacing-induced cardiac failure. In kind it is in vivo. As to conditions: CHF dog preparations. As for the experimental part: Adult male mongrel dogs (22-25 kg) were chronically instrumented for pressure-dimension analysis as described. See, Paolocci et al., “Positive Inotropic and Lusitropic Effects of HNO/NO− in Failing Hearts: Independence from Beta-Adrenergic Signaling,” Proc. Natl. Acad. Sci. USA., 100, 5537-5542 (2003); and Senzaki et al., Circulation, 101, 1040-1048 (2000). Animals were anesthetized with 1% to 2% halothane after induction with sodium thiopental (10-20 mg/kg, i.v.). The surgical/experimental animal protocol was approved by the Johns Hopkins University Animal Care and Use Committee. […] Cardiac failure was induced by rapid ventricular pacing for 3 weeks as described. See, Paolocci et al., supra, and Senzaki et al., supra.
Hemodynamic data were digitized at 250 Hz. […] These relations strongly correlate with results from pressure-volume data in normal and failing hearts, as previously validated. Cardiovascular function was assessed by stroke dimension, fractional shortening (stroke dimension/end-diastolic dimension [EDD]), estimated cardiac output (stroke dimension×HR), peak rate of pressure rise (dP/dtmax), end-systolic elastance (Ees, slope of end-systolic pressure-dimension relation [ESPDR]), the slope of dP/dtmax-EDD relation (DEDD) (see, Little, Circ Res., 56:808-815 (1985)), pre-recruitable stroke work (PRSW), (based on dimension-data), estimated arterial elastance (Ea, end systolic pressure/stroke dimension) and estimated total resistance (RT, […]). Ees, DEDD and PRSW provide load-insensitive contractility measures.
The end-diastolic pressure-volume relationship (EDPVR) was determined applying non-linear regression analysis to the end-diastolic pressure and volume points (Ped and Ved, respectively), according to Kass, Cardiol Clin., 18, 571-86 (2000) (Review).
In order to evaluate the impact of each pharmacological intervention on the EDPVR, changes in end-diastolic pressure from baseline (ΔPed) at volumes providing baseline end-diastolic pressure of […] mmHg EDP (V10, V15, V20, respectively) were determined (FIG. 5).

Data set [2] can be described thus: Kinetics of AS decomposition in Tyrode solution. In kind it is physicochemical. As to conditions: after ~1000 sec (16 min); Tyrode solution pH 7.4, room temperature; identical for 0.1-1 mM AS. How it is done:
FIG. IA-FIG. 1D show the effects of HNO donor AS on sarcomere shortening in isolated mouse ventricular myocytes.
At physiological pH, AS decomposes to produce HNO and nitrite. Whether nitrite could play a role in the observed responses was therefore tested. […] Identical results were obtained for 0.1-1 mM AS. Thus, at time of functional analysis, 25-250 μM NO2^− is expected; however, such levels (and higher or lower doses) had no effect on sarcomere shortening (FIG. 1H).

Consider `[Na+].[Na+].[O-][N+]([O-])=NO` [AS, Angeli's salt], for which the “effect on end-diastolic pressure-volume relationship (EDPVR)” value in data set [1] was “declined significantly”. Also, in data set [2], the “nitrite generation on AS decomposition” value came out at 25%.
